Common to all, as to assay: pull-down with CCG-1423 Sepharose, immunoblot
Holding throughout (assay type): binding

The target of assay [1] is T1, Mycd (myocardin), Flag-Mycd (Mus musculus, UniProt Q8VIM5).
T1 construct: gene Myocd; N-terminal Flag tag, pCS2+; in vitro translated in wheat germ extract, anti-Flag purified
T1 sequence (Q8VIM5 1-935): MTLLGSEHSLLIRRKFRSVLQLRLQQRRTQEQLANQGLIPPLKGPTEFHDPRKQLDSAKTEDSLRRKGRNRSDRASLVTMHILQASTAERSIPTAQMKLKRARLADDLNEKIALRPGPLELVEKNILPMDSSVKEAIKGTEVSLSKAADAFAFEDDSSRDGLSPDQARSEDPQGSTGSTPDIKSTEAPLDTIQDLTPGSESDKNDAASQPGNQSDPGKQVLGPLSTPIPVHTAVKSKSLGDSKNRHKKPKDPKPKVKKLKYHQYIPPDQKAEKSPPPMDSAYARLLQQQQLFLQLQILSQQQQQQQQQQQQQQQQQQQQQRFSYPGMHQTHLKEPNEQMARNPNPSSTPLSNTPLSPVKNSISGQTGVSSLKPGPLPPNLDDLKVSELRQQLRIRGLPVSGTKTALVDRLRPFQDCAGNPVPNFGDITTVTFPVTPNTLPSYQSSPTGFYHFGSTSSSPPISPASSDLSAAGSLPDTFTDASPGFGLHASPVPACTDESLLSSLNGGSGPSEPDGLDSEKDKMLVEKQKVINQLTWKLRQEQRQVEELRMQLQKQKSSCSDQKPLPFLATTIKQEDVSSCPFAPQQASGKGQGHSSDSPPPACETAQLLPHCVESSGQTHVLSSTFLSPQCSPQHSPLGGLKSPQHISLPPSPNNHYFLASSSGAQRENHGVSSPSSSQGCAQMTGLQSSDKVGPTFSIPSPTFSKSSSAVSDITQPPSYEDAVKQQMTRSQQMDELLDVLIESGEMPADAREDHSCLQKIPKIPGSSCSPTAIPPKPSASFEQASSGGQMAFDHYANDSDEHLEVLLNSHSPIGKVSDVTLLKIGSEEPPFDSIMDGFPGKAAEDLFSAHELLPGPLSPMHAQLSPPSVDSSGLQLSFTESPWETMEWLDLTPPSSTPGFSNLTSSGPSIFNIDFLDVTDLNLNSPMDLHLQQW
As to conditions: immobilised CCG-1423 (photo-crosslinked to Sepharose); pH 7.5, 4°C, 2 h.

Assay [2] has as its target T2, MRTF-A (MAL/MKL1), Flag-MRTF-A (Mus musculus, UniProt Q8K4J6).
T2 construct: gene Mrtfa; N-terminal Flag tag, pCS2+; in vitro translated in wheat germ extract, anti-Flag purified
T2 sequence (Q8K4J6 1-964): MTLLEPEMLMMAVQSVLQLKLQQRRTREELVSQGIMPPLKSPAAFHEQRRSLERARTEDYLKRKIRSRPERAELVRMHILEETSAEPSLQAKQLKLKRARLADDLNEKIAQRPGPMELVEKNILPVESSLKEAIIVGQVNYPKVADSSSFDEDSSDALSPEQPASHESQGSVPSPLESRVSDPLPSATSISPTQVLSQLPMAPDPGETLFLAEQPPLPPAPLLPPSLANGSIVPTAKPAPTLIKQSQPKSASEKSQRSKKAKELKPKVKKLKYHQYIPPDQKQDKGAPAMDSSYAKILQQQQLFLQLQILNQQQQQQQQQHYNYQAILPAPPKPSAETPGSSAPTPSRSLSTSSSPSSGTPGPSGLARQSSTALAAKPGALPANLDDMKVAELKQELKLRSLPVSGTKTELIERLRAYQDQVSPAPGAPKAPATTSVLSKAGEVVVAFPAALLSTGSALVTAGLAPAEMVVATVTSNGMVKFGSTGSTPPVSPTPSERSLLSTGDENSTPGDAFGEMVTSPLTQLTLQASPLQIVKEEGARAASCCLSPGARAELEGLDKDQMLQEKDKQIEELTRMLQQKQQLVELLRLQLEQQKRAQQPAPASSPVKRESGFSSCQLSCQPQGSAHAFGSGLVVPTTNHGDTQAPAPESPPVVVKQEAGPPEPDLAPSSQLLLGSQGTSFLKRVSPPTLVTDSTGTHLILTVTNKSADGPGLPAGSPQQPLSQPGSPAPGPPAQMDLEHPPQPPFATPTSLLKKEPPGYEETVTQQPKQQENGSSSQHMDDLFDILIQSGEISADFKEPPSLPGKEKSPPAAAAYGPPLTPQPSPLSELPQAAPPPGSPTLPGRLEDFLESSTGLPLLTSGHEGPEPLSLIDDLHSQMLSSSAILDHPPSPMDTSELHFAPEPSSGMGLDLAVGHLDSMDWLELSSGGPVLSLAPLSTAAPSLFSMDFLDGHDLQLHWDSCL
The following applies: immobilised CCG-1423 (photo-crosslinked to Sepharose) competed by 10 µM free CCG-1423; no G-actin; pH 7.5, 4°C, 2 h; site: N-terminal basic domain (NB).

The target in a further assay is T3, Phactr1, Flag-Phactr1 (Rattus norvegicus, UniProt P62024).
T3 construct: N-terminal Flag tag, pCS2+; in vitro translated in wheat germ extract, anti-Flag purified
T3 sequence (P62024 1-580): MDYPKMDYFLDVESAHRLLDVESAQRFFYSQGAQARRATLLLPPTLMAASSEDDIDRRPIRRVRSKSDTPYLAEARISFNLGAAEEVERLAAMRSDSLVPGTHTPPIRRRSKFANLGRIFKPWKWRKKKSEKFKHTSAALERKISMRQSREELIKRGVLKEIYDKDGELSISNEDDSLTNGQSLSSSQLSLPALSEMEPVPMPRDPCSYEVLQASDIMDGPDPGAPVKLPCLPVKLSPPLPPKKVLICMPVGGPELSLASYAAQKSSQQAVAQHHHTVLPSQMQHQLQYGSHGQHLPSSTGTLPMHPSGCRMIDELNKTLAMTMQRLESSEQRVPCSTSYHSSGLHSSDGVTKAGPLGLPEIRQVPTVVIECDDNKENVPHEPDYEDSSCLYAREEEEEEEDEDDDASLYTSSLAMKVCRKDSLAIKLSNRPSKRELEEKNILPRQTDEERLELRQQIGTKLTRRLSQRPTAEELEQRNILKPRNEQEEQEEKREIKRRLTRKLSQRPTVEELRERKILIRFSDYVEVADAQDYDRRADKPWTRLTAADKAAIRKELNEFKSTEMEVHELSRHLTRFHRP
As to conditions: immobilised CCG-1423 (photo-crosslinked to Sepharose); pH 7.5, 4°C, 2 h.

For assay [3], the target named is T4, MRTF-B (MAL16/MKL2), Flag-MRTF-B (Mus musculus, UniProt P59759).
T4 construct: gene Mrtfb; N-terminal Flag tag, pCS2+; in vitro translated in wheat germ extract, anti-Flag purified
T4 sequence (P59759 1-1080): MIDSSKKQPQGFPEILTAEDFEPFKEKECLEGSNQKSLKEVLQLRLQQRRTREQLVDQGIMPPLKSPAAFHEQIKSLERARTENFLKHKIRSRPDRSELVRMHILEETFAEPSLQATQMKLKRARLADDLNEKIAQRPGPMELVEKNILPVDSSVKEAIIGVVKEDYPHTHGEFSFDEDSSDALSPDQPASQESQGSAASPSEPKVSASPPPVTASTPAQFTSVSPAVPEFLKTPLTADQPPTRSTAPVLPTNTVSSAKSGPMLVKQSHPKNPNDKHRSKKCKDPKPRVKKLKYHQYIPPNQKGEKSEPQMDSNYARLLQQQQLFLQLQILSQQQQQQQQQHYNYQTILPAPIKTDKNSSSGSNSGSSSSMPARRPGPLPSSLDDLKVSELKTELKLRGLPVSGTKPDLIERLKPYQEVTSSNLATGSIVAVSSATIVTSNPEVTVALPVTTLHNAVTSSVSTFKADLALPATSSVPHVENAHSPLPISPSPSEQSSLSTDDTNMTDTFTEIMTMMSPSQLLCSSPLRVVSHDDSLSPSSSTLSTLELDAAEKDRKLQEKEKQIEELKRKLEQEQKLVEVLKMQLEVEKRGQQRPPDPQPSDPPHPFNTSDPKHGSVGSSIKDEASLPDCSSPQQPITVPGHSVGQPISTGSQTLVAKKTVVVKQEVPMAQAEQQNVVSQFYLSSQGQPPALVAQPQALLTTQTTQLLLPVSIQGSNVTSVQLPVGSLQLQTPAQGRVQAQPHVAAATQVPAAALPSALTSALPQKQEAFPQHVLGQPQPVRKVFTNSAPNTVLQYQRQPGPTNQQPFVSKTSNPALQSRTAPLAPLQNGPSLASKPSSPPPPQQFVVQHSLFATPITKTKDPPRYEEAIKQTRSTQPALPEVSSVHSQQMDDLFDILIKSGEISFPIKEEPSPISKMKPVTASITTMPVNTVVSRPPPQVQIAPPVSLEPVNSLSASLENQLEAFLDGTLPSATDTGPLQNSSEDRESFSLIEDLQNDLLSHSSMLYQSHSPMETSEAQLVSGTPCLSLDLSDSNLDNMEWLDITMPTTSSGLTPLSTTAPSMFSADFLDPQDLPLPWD
As to conditions: immobilised CCG-1423 (photo-crosslinked to Sepharose); pH 7.5, 4°C, 2 h.

Assay [4] addresses T2, MRTF-A (MAL/MKL1), Flag-MRTF-A. The following applies: immobilised CCG-1423 (photo-crosslinked to Sepharose); pH 7.5, 4°C, 2 h.
In assay [5] the target is T4, MRTF-B (MAL16/MKL2), Flag-MRTF-B. The following applies: immobilised CCG-1423 (photo-crosslinked to Sepharose); pH 7.5, 4°C, 2 h. This is another data set of the same source.

The values that follow come from article PMC3928398, “RPEL Proteins Are the Molecular Targets for CCG-1423, an Inhibitor of Rho Signaling” (PLoS ONE, 2014).

`CC(ONC(=O)c1cc(C(F)(F)F)cc(C(F)(F)F)c1)C(=O)Nc1ccc(Cl)cc1` (stereo not drawn) [CCG-1423]: the “pull-down with CCG-1423 Sepharose, immunoblot” value in assay [1] is “MRTF-B, Mycd, and Phactr1 bound to CCG-1423 Sepharose”; on Phactr1, Flag-Phactr1 it was “MRTF-B, Mycd, and Phactr1 bound to CCG-1423 Sepharose”; in assay [3], “MRTF-B, Mycd, and Phactr1 bound to CCG-1423 Sepharose”; in assay [5], “MRTF-B NBmut) to CCG-1423 Sepharose severely reduced”. In assay [2], the “% of binding left with 10 μM free CCG-1423” value was 20.6±6.3%. The “% of wild-type binding” value in assay [4] is on record as 11.2±8.5%.
